The text below walks through data of patent US6750228B1, “Aromatic sulfone hydroxamic acid metalloprotease inhibitor” (priority 1997, dated 2004).

Read-outs that look alike come from different tables or passages of the source.

Holding throughout (test): biochemical
The target of one assay is T1, MMP-13 (Homo sapiens, UniProt P45452).
T1 construct: made in house; host or cells: baculovirus / insect cells
Particulars: recombinant human MMP-13, MCA peptide substrate 4 μM, pH 7.5, room temperature; read-out: MMP-13 IC50. An outline of the steps:
(§1)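 Assay buffer 100 mM Tris-HCl, 100 mM NaCl, 10 mM CaCl2, pH 7.5. Activated MMP + inhibitor, 5 min RT; then methoxycoumarin peptide substrate, 4 μM final. Readout fluorescence; IC50 calculated.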

In the next assay the target is T2, MMP-1 (Homo sapiens, UniProt P03956).
T2 construct: made in house; host or cells: transfected HT-1080 cells (provided by Dr. Harold Welgus, Washington University)
T2 sequence (P03956 100-469): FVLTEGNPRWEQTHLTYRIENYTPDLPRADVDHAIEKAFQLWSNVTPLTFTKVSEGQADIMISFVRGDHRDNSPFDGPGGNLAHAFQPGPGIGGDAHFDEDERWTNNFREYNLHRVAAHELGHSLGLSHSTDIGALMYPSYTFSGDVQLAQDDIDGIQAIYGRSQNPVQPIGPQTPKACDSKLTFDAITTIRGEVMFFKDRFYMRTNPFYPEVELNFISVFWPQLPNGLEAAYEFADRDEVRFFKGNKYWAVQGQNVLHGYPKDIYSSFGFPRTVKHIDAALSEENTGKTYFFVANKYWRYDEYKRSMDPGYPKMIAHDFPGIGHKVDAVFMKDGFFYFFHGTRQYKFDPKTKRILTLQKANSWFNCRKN
Particulars: read-out: MMP-1 IC50. The method in brief: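 APMA- or trypsin-activated enzymes were preincubated with inhibitor for 5 min at room temperature, then the fluorogenic substrate MCA-Pro-Leu-Gly-Leu-Dpa-Ala-Arg-NH2 was added to a final 4 μM.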

The next assay addresses T3, MMP-2 (Homo sapiens, UniProt P08253).
T3 construct: made in house; provided by Dr. Gregory Goldberg, Washington University
T3 sequence (P08253 110-660): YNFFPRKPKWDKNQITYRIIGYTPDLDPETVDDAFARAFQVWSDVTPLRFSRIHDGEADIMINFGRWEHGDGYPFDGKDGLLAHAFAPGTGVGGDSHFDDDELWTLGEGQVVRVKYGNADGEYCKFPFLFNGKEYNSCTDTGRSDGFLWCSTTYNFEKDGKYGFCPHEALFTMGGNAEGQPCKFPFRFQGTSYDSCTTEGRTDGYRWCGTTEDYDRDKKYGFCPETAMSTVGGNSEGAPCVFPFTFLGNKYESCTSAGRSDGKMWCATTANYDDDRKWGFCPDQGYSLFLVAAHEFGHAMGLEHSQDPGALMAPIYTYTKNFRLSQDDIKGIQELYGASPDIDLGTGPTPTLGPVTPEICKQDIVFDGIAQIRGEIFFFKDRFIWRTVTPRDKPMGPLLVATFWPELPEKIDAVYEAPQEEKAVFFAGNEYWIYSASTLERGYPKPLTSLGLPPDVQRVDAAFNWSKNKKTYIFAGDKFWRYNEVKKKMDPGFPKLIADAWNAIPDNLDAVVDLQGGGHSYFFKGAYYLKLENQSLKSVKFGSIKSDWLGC
The settings on record: recombinant human MMP-2, MCA peptide substrate 4 μM, pH 7.5, room temperature; read-out: MMP-2 IC50. The method in brief:
as §1

The mark [1] stands for this setting: recombinant human MMP-1, MCA peptide substrate 4 μM, pH 7.5, room temperature.

What is called IC50 is the concentration at which inhibition is half-maximal. Regarding `O=C(NO)C1(S(=O)(=O)c2ccc(N3CCC(OCc4ccc(COCC(F)(F)C(F)F)cc4)CC3)cc2)CCOCC1` [Example 608], the values for the concentration for half-maximal inhibition (IC50) on MMP-13, at MMP-1 (setting [1]) and on MMP-2 were 3 nM, above 10000 nM and 250 nM, respectively.

Consider `O=C(NO)C1(S(=O)(=O)c2ccc(N3CCC(OCc4ccc(COCC(F)(F)C(F)(F)C(F)(F)F)cc4)CC3)cc2)CCOCC1` [Example 609], for which the figures for the IC50 on MMP-13, on MMP-1 (setting [1]) and at MMP-2 were 30.6 nM, above 10000 nM and 2800 nM, respectively.

Turning to `O=C(NO)C1(S(=O)(=O)c2ccc(N3CCC(OCc4ccc(COCC(F)(F)C(F)(F)C(F)(F)C(F)F)cc4)CC3)cc2)CCOCC1` [Example 611], the IC50 at MMP-13 was 139 nM; on MMP-1 (setting [1]), above 10000 nM; on MMP-2, 1800 nM.

Turning to `O=C(NO)C1(S(=O)(=O)c2ccc(N3CCC(OCc4ccc(COc5ccccc5)cc4)CC3)cc2)CCOCC1` [Example 613], the values for the concentration for half-maximal inhibition (IC50) at MMP-13, at MMP-1 (setting [1]) and on MMP-2 were 8 nM, above 10000 nM and 30.7 nM, respectively.

Regarding `O=C(NO)C1(S(=O)(=O)c2ccc(N3CCC(Oc4cccc5ccccc45)CC3)cc2)CCOCC1` [Example 614], the IC50 on MMP-13 is 22 nM; on MMP-1 (setting [1]), above 10000 nM; at MMP-2, 25.4 nM.

`O=C(NO)C1(S(=O)(=O)c2ccc(N3CCC(Oc4ccc(Cl)cc4)CC3)cc2)CCOCC1` [Example 615]: the IC50 on MMP-13 was 3.1 nM; on MMP-1 (setting [1]), above 10000 nM; at MMP-2, 11 nM.

Consider `COc1ccc(OC2CCN(c3ccc(S(=O)(=O)C4(C(=O)NO)CCOCC4)cc3)CC2)cc1OC` [Example 616], for which the IC50 at MMP-13 is 4 nM; on MMP-1 (setting [1]), above 10000 nM; on MMP-2 it was 3.7 nM.

Take `O=C(NO)C1(S(=O)(=O)c2ccc(N3CCC(Oc4ccc(Cl)c(Cl)c4)CC3)cc2)CCOCC1` [Example 617]: the IC50 at MMP-13 is 7 nM; at MMP-1 (setting [1]), above 10000 nM; on MMP-2, 5.7 nM.

`Cc1ccc(OC2CCN(c3ccc(S(=O)(=O)C4(C(=O)NO)CCOCC4)cc3)CC2)cc1` [Example 619]: the IC50 on MMP-13 was 4.3 nM; at MMP-1 (setting [1]), above 10000 nM; at MMP-2 it was 5.7 nM.

With `O=C(NO)C1(S(=O)(=O)c2ccc(N3CCC(Oc4cccc(C(F)(F)F)c4)CC3)cc2)CCOCC1` [Example 620], the half-maximal inhibitory concentration (IC50) is 27.8 nM at MMP-13, above 10000 nM at MMP-1 (setting [1]) and 225 nM on MMP-2.

With `CCOC(=O)CN1CCN(c2ccc(S(=O)(=O)C3(C(=O)NO)CCOCC3)cc2)CC1` [Example 621], the IC50 was 120 nM on MMP-13, above 10000 nM on MMP-1 (setting [1]) and 1500 nM on MMP-2.

As to `CCN1CCN(c2ccc(S(=O)(=O)C3(C(=O)NO)CCOCC3)cc2)CC1` [Example 622], the IC50 is 500 nM at MMP-13, above 10000 nM on MMP-1 (setting [1]) and 1600 nM at MMP-2.

As for `O=C(NO)C1(S(=O)(=O)c2ccc(N3CCC(SC4CCCCC4)CC3)cc2)CCOCC1` [Example 634], the IC50 on MMP-13 was 4.4 nM; at MMP-1, above 10000 nM; on MMP-2, 60.7 nM.

For the molecule `C=CCOC1CCN(c2ccc(S(=O)(=O)C3(C(=O)NO)CCOCC3)cc2)CC1` [Example 635], the half-maximal inhibitory concentration (IC50) at MMP-13 is 13.9 nM; at MMP-1 (setting [1]), above 10000 nM; at MMP-2, 260 nM.

Take `Cc1ccc(OC2CCN(c3ccc(S(=O)(=O)C4(C(=O)NO)CCOCC4)cc3)CC2)cc1C` [Example 637]: the IC50 on MMP-13 is 3.8 nM; at MMP-1 (setting [1]), above 10000 nM; at MMP-2, 22 nM.

Regarding `COc1cc(OC)cc(OC2CCN(c3ccc(S(=O)(=O)C4(C(=O)NO)CCOCC4)cc3)CC2)c1` [Example 639], the concentration for half-maximal inhibition (IC50) on MMP-13 was determined as 1.5 nM; at MMP-1 (setting [1]), 9400 nM; at MMP-2, 1.5 nM.

Turning to `CCOc1cccc(OC2CCN(c3ccc(S(=O)(=O)C4(C(=O)NO)CCOCC4)cc3)CC2)c1` [Example 640], the IC50 is 4.2 nM on MMP-13, above 10000 nM at MMP-1 (setting [1]) and 15.8 nM on MMP-2.

As for `O=C(NO)C1(S(=O)(=O)c2ccc(N3CCC(Oc4ccc(Cl)cc4F)CC3)cc2)CCOCC1` [Example 641], the values for the IC50 on MMP-13, on MMP-1 (setting [1]) and on MMP-2 were 4 nM, above 10000 nM and 13.7 nM, respectively.

For the molecule `CCCCc1ccc(OC2CCN(c3ccc(S(=O)(=O)C4(C(=O)NO)CCOCC4)cc3)CC2)cc1` [Example 642], the results for the half-maximal inhibitory concentration (IC50) on MMP-13, at MMP-1 (setting [1]) and at MMP-2 were 2.2 nM, above 10000 nM and 1.1 nM, respectively.

Regarding `COCCc1ccc(OC2CCN(c3ccc(S(=O)(=O)C4(C(=O)NO)CCOCC4)cc3)CC2)cc1` [Example 643], the half-inhibitory concentration (IC50) on MMP-13 was 1.8 nM; at MMP-1 (setting [1]) it was 6000 nM; at MMP-2, 1.2 nM.

`O=C(NO)C1(S(=O)(=O)c2ccc(N3CCC(Oc4ccc5c(c4)OCO5)CC3)cc2)CCOCC1` [Example 644]: the figures for the IC50 at MMP-13, on MMP-1 (setting [1]) and on MMP-2 were 1.6 nM, 8800 nM and 3.3 nM, respectively.

With `COCCN1CCN(c2ccc(S(=O)(=O)C3(C(=O)NO)CCOCC3)cc2)CC1` [Example 645], the 50% inhibitory concentration (IC50) on MMP-13 was 370 nM; at MMP-1 (setting [1]), above 10000 nM; on MMP-2, 1200 nM.

Take `COc1ccc(C(=O)C2CCN(c3ccc(S(=O)(=O)C4(C(=O)NO)CCOCC4)cc3)CC2)cc1` [Example 647]: the half-maximal inhibitory concentration (IC50) was 6 nM on MMP-13, above 10000 nM at MMP-1 (setting [1]) and 160 nM at MMP-2.

`COc1ccc(COC2CCC(Oc3ccc(S(=O)(=O)C4(C(=O)NO)CCOCC4)cc3)C2)cc1` (stereo not drawn) [Example 648]: the IC50 on MMP-13 is 25.8 nM; on MMP-1 (setting [1]), above 10000 nM; at MMP-2, 110 nM.

Turning to `O=C(NO)C1(S(=O)(=O)c2ccc(N3CCCN(S(=O)(=O)c4ccccc4)CC3)cc2)CCOCC1` [Example 650], the half-inhibitory concentration (IC50) at MMP-13 is 14.7 nM; on MMP-1 (setting [1]), above 10000 nM; at MMP-2, 1200 nM.

On to `Cc1cccc(COC2CCC(Oc3ccc(S(=O)(=O)C4(C(=O)NO)CCOCC4)cc3)C2)c1` (stereo not drawn) [Example 651], for which the IC50 at MMP-13 is 13.7 nM; at MMP-1 (setting [1]), above 10000 nM; at MMP-2, 60 nM.

Consider `Cc1ccc(C(=O)C2CCN(c3ccc(S(=O)(=O)C4(C(=O)NO)CCOCC4)cc3)CC2)cc1` [Example 652], for which the figures for the half-inhibitory concentration (IC50) on MMP-13, on MMP-1 (setting [1]) and on MMP-2 were 0.4 nM, above 10000 nM and 82 nM, respectively.

Consider `Cc1cccc(C(=O)C2CCN(c3ccc(S(=O)(=O)C4(C(=O)NO)CCOCC4)cc3)CC2)c1` [Example 653], for which the half-inhibitory concentration (IC50) at MMP-13 is 0.8 nM; on MMP-1 (setting [1]), above 10000 nM; on MMP-2 it was 160 nM.

In the case of `O=C(c1ccc(F)cc1)C1CCN(c2ccc(S(=O)(=O)C3(C(=O)NO)CCOCC3)cc2)CC1` [Example 654], the IC50 at MMP-13 is 3.2 nM; on MMP-1 (setting [1]), above 10000 nM; at MMP-2 it was 35 nM.

For the molecule `COc1ccccc1C(=O)C1CCN(c2ccc(S(=O)(=O)C3(C(=O)NO)CCOCC3)cc2)CC1` [Example 655], the 50% inhibitory concentration (IC50) on MMP-13 was 37.3 nM; at MMP-1 (setting [1]), above 10000 nM; at MMP-2 it was 1400 nM.

Take `O=C(c1ccccc1)C1CCN(c2ccc(S(=O)(=O)C3(C(=O)NO)CCOCC3)cc2)CC1` [Example 656]: the 50% inhibitory concentration (IC50) on MMP-13 was 3.1 nM; at MMP-1 (setting [1]), above 10000 nM; on MMP-2 it was 120 nM.

Consider `O=C(NCc1ccccc1)N1CC(Oc2ccc(S(=O)(=O)C3(C(=O)NO)CCOCC3)cc2)C1` [Example 658], for which the half-inhibitory concentration (IC50) was 12.2 nM at MMP-13, above 10000 nM at MMP-1 (setting [1]) and 1000 nM at MMP-2.

`O=C(NO)C1(S(=O)(=O)c2ccc(N3CCN(c4ccc(Cl)cc4)CC3)cc2)CCOCC1` [Example 659]: the values for the IC50 on MMP-13, on MMP-1 (setting [1]) and at MMP-2 were 1 nM, above 10000 nM and 3.7 nM, respectively.

As for `O=C(NO)C1(S(=O)(=O)c2ccc(OC3CCC(OCc4ccccc4Cl)C3)cc2)CCOCC1` (stereo not drawn) [Example 665], the IC50 at MMP-13 was 2.3 nM; at MMP-1 (setting [1]) it was above 10000 nM; at MMP-2 it was 29.2 nM.
